Experimental data published in BindingDB's records for patent US20250002452 (Icagen, 2025).

Target: Potassium voltage-gated channel subfamily KQT member 2 (Homo sapiens, UniProt O43526)
Assay: SyncroPatch 384 (Nanion) High Throughput Electrophysiology Assay
Excerpt: Solutions were of the following composition:Earle's balanced salt solution (in mM): 135 NaCl, 5.4 KCl, 5 Glucose, 2 CaCl2), 1 MgCl2, 5 HEPES, pH 7.4. Seal enhancer solution (in mM): 90 NaCl, 3 KCl, 35 CaCl2), 10 MgCl2, 10 HEPES, pH 7.4. Extracellular recording solution (in mM): 71 NaCl, 70 NMDG, 13 KCl, 5 Glucose, 2 CaCl2), 1 MgCl2, 10 HEPES, pH 7.4. Intracellular recording solution (in mM): 130 KF, 20 KCl, 4 EGTA, 10 HEPES, 2 EDTA, 0.01 Escin, pH 7.2.

Potassium voltage-gated channel subfamily KQT member 2, sequence (O43526 whole entry): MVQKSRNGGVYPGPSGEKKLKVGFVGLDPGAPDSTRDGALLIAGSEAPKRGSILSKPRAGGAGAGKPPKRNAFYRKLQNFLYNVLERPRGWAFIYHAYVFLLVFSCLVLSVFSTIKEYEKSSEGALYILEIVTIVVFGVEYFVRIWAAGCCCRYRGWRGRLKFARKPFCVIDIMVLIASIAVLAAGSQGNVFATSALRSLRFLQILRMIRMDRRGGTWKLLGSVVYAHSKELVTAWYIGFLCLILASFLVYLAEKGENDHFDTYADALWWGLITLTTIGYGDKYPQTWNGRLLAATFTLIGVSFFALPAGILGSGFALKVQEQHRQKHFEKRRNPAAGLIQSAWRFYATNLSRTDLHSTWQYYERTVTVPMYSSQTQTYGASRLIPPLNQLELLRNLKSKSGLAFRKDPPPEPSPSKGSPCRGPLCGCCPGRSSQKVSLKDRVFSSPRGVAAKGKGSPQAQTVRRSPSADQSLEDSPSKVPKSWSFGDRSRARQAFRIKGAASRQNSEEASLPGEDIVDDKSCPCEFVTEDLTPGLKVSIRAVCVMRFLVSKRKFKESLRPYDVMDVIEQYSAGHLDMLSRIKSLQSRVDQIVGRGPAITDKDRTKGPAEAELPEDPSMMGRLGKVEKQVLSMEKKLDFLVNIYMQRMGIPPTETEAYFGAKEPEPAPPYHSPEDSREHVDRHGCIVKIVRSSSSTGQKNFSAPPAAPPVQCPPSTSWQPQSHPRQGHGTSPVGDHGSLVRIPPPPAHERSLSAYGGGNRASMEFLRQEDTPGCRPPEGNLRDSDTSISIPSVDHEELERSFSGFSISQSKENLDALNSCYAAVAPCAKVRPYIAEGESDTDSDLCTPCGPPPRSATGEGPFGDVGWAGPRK

CC(NC(=O)NC12CC(F)(C1)C2)c1cccc(OC(F)F)c1 (stereo unspecified) [US20250002452, Example 38]
EC50: 180 nM
